Reference: EP0923292B1, “IMPROVED METHOD FOR SYSTEMIC ADMINISTRATION OF 2,4-DIENOIC ACID-TYPE INSECTICIDES TO TERRESTRIAL MAMMALS” (priority 1996, dated 1998)

Experiments:
C. felis [1] = experiment: Systemic flea ovicidal activity upon oral administration to host dogs (Example 2); format: in vivo, C. felis (host: dogs); settings: for Percent Inhibition of Flea Egg Hatching: relative to placebo
Description: Nine random-bred, clinically healthy dogs, five male and four female, ranging in weight from 7.5 to 14.9 kg and in age from 7 months to 68 months, and having hair coats ranging from fine to coarse and from 1.0 to 2.5 cm in length, were used. The dogs were assigned to three treatment groups based on weight, one group designated to receive a placebo (gelatin capsules containing no (S)-methoprene), the second group to receive gelatin capsules individually prepared to contain the appropriate quantity of (S)-methoprene such that one capsule would provide 25.0 mg (S)-methoprene per kg of the body weight of a particular dog, and the third group to receive gelatin capsules individually prepared to provide 50.0 mg/kg of body weight per dog. […]
(§1) Eleven days before the administration of the first gelatin capsule (i.e., on Day -11), and weekly thereafter through Day 59, each dog was infested with approximately 200 one-to two-week-old, unfed adult C. fells fleas of mixed sex ratio. Each dog was restrained for about one minute while the fleas were released along the dorsum.
[…] Prior to egg collection, the cages in which the dogs were housed and the collection trays were rinsed with isopropyl alcohol, and the water was turned off, feed bowls and resting pads were removed from each cage. Trays covered with a screen made of […] hardware cloth were placed under the cages, and heavy white butcher paper was placed under the hardware cloth. After an interval of 14-16 hours, the paper was swept and the debris and flea eggs thus collected were transferred to a metal pan. The debris was separated from the eggs by sieving, and the eggs were placed in half-pint plastic cartons, then transferred to 10 cm x 10 cm glass plates. Using a dissecting microscope and a fine tipped artist brush, 100 flea eggs were counted from the sweepings of each dog and separated into four replicates of 25 eggs each. The eggs were placed in a 15 mm x 60 mm disposable plastic petri dish and incubated at 79-80°F and 80% relative humidity. Seventy two hours after collection, larvae emergence was determined. Both dead and live larvae were counted to determine the ovicidal effect of the treatment.
The results are listed in Table II below, where each entry represents the percent inhibition of hatching of fleas from the flea eggs relative to the placebo group, and each entry is the average of all replicates and of all three dogs in the particular treatment group.

C. felis [2] = experiment: Systemic ovicidal activity upon oral administration (initial bolus plus daily diet) to host dogs (Example 3); format: in vivo, C. felis (host: dogs); settings: eggs collected from the dogs, week 4
Description: as §1
Flea eggs were collected on Days -7, 0, 1, 2, 4, 7, and weekly thereafter through Day 63. Prior to egg collection, the cages in which the dogs were housed and the collection trays were rinsed with isopropyl alcohol, and the water was turned off, feed bowls and resting pads were removed from each cage. […] Using a dissecting microscope and a fine tipped artist brush, 100 flea eggs were counted from the sweepings of each dog and separated into four replicates of 25 eggs each. […] Seventy two hours after collection, larvae emergence was determined. Both dead and live larvae were counted to determine the ovicidal effect of the treatment. […]
Three days prior to the week 4 data point, each dog was infested with fleas in the manner described in Example 2. At week 4, flea eggs were collected from the dogs themselves in the manner described in Example 2, and the percent inhibition of egg hatch for the fleas collected in this manner was determined as in Example 2.

COC(C)(C)CCC[C@H](C)C/C=C/C(C)=C/C(=O)OC(C)C [(S)-Methoprene, 1-isopropyl (E,E)-11-methoxy-3,7,11-trimethyl dodecadi-2,4-enoate]
duration of ovicidal efficacy (C. felis [1]; administered systemically to host dogs at 50 mg/kg and 25 mg/kg): two weeks or more | time effective in controlling fleas (C. felis [1]; following a single oral dose of 50 mg/kg to dogs): 14 days | Percent Inhibition of Flea Egg Hatching (C. felis [1]; oral 25 mg/kg once on Day 0 and once on Day 33, 1 day after initial administration): 92.3% | Percent Inhibition of Flea Egg Hatching (C. felis [1]; oral 25 mg/kg once on Day 0 and once on Day 33, 2 days after initial administration): 80.4% | Percent Inhibition of Flea Egg Hatching (C. felis [1]; oral 25 mg/kg once on Day 0 and once on Day 33, 4 days after initial administration): 100.0% | Percent Inhibition of Flea Egg Hatching (C. felis [1]; oral 25 mg/kg once on Day 0 and once on Day 33, 7 days after initial administration): 44.4% | Percent Inhibition of Flea Egg Hatching (C. felis [1]; oral 25 mg/kg once on Day 0 and once on Day 33, 14 days after initial administration): 75.1% | Percent Inhibition of Flea Egg Hatching (C. felis [1]; oral 25 mg/kg once on Day 0 and once on Day 33, 21 days after initial administration): 79.0% | Percent Inhibition of Flea Egg Hatching (C. felis [1]; oral 25 mg/kg once on Day 0 and once on Day 33, 28 days after initial administration): 39.9% | Percent Inhibition of Flea Egg Hatching (C. felis [1]; oral 25 mg/kg once on Day 0 and once on Day 33, 35 days after initial administration): 100.0% | Percent Inhibition of Flea Egg Hatching (C. felis [1]; oral 25 mg/kg once on Day 0 and once on Day 33, 42 days after initial administration): 95.9% | Percent Inhibition of Flea Egg Hatching (C. felis [1]; oral 25 mg/kg once on Day 0 and once on Day 33, 49 days after initial administration): 11.3% | Percent Inhibition of Flea Egg Hatching (C. felis [1]; oral 25 mg/kg once on Day 0 and once on Day 33, 55 days after initial administration): 12.6% | Percent Inhibition of Flea Egg Hatching (C. felis [1]; oral 25 mg/kg once on Day 0 and once on Day 33, 63 days after initial administration): 14.0% | Percent Inhibition of Flea Egg Hatching (C. felis [1]; oral 50 mg/kg once on Day 0 and once on Day 33, 1 day after initial administration): 98.9% | Percent Inhibition of Flea Egg Hatching (C. felis [1]; oral 50 mg/kg once on Day 0 and once on Day 33, 2 days after initial administration): 100.0% | Percent Inhibition of Flea Egg Hatching (C. felis [1]; oral 50 mg/kg once on Day 0 and once on Day 33, 4 days after initial administration): 100.0% | Percent Inhibition of Flea Egg Hatching (C. felis [1]; oral 50 mg/kg once on Day 0 and once on Day 33, 7 days after initial administration): 97.5% | Percent Inhibition of Flea Egg Hatching (C. felis [1]; oral 50 mg/kg once on Day 0 and once on Day 33, 14 days after initial administration): 97.9% | Percent Inhibition of Flea Egg Hatching (C. felis [1]; oral 50 mg/kg once on Day 0 and once on Day 33, 21 days after initial administration): 73.0% | Percent Inhibition of Flea Egg Hatching (C. felis [1]; oral 50 mg/kg once on Day 0 and once on Day 33, 28 days after initial administration): 50.8% | Percent Inhibition of Flea Egg Hatching (C. felis [1]; oral 50 mg/kg once on Day 0 and once on Day 33, 35 days after initial administration): 100.0% | Percent Inhibition of Flea Egg Hatching (C. felis [1]; oral 50 mg/kg once on Day 0 and once on Day 33, 42 days after initial administration): 100.0% | Percent Inhibition of Flea Egg Hatching (C. felis [1]; oral 50 mg/kg once on Day 0 and once on Day 33, 49 days after initial administration): 51.5% | Percent Inhibition of Flea Egg Hatching (C. felis [1]; oral 50 mg/kg once on Day 0 and once on Day 33, 55 days after initial administration): 31.9% | Percent Inhibition of Flea Egg Hatching (C. felis [1]; oral 50 mg/kg once on Day 0 and once on Day 33, 63 days after initial administration): 16.1% | Percent Inhibition of Flea Egg Hatching (C. felis [2]; initial bolus 25 mg/kg then daily diet 0.01% (S)-methoprene): 100% | Percent Inhibition of Flea Egg Hatching (C. felis [2]; initial bolus 50 mg/kg then daily diet 0.02% (S)-methoprene): 100%
